Marks after values point to notes of the source that are not given here.
Legend:
malondialdehyde = assay: Antioxidant capacity: malondialdehyde in exercised rats; assay type: in vivo, rat; settings: 6 weeks
Method: Fifty-six (56) Male Wistar rats that were 8-week old were obtained. The rats were reared at the temperature of 22 ± 2° C., the humidity of 55 ± 5%, and with a 12-hrs light-12-hrs dark cycle. All procedures involving rats were conducted in strict compliance with the relevant laws, the Animal Welfare Act, Public Health Services Policy, and guidelines established by the Institutional Animal Care and Use Committee of the Institute of the contracted University which completed the study.
After a week of the adaptation period, the rats were divided into eight equal groups containing seven rats each. The initial body weights of the rats were similar in all the groups (214.53 grams ± 4.67; P > 0.05).
Groups 1 and 2 were not subjected to an exercise routine. Groups 3-8 were subjected to an exercise regimen consisting of a week training period with an incremental exercise capacity described below. After the week training period the exercise regimen followed was each rat in Groups 3-8 were subjected to 6 weeks of running at 25 m/min during 45 min […]. […] These correspond to 0, 250, 500, 1000, 2000 and 4000 mg per day for humans, respectively.
The exercised rats were subjected to treadmill exercise on a motorized rodent treadmill (Commat Limited, Ankara, Turkey). The treadmill contained a stimulus grid at the back end of the treadmill giving an electric shock when the animal placed its paw on the grid. […] To eliminate the diurnal variations, all exercise tests were applied during the same time of the day. The week of training period was provided as pre-training practice for the animals to get familiar with the treadmill equipment and handling. In doing so, the rats in the exercise training groups were accustomed by treadmill exercise over 5 days such that: (i) 1st day, 10 m/min for 10 min, (ii) 2nd day, 20 m/min for 10 min, (iii) 3rd day, 25 m/min for 10 min, (iv) 4th day, 25 m/min for 20 min and (v) 5th day, 25 m/min for 30 min. After the training period, the rats in treadmill exercise groups ran on the treadmill 25 m/min for 45 min/ per day and five days per week for 6 weeks according to the protocol described by Sahin et al. Capsaicinoids Improve the Consequences of Physical Activity. Toxicol Rep. 2018;5:598-607, which is hereby incorporated by reference.
The exercise regimen was used to induce an inflammation and oxidative stress conditions. […] The results of malondialdehyde, superoxide dismutase, catalase, and glutathione peroxidase for each rat group are shown in TABLE 2.

ACE-2 [1] = assay: Rat plasma serum ELISA, ACE-2; assay type: in vivo; settings: exercised rats, FIG. 5B
Calu-3 cells = assay type: cell-based, human; settings: Calu-3, 50 uM to 10 mM, 24 h, 48 h or 72 h
Method: Calu-3 cells were maintained in 50% DMEM (Dulbecco’s Modified Eagle Medium) + 50% Ham’s F12 media supplemented with 10% FBS (fetal bovine serum) and 1% penicillin/streptomycin. Vero E6 cells were maintained in DMEM media supplemented with 10% FBS and 1% penicillin/streptomycin.
Calu-3 seeded in a 96-well plate (30,000 cells) were stimulated with 50 uM, 100 uM, 250 uM, 500 uM, 1 mM and 10 mM Carnitine alone. At 24 h, 48 h or 72 h post stimulation, media was removed and cells were subjected to a standard MTT assay.

ACE-2 [2] = assay: ACE-2 surface protein in Calu-3 cells, flow cytometry; assay type: cell-based, human; settings: Calu-3, 100 uM, 24-hr pre-treatment
Method: ACE-2 surface expression protein in Calu-3 cells was evaluated using FACS flow cytometry sorting. […] Cells were detached with PBS/EDTA at room temperature. FBS-containing growth media was added to cells to inactivate TE. Cells were spun for 5 min at […]. Supernatant was removed and cells were washed twice in flow buffer (PBS+0.2% FBS). Between 100,000-200,000 cells were stained for ACE-2 and BST2 (absent in Calu-3and used as a control) for 30 min on ice using goat anti-ACE-2 (R&D Systems; AF933) and PE-conjugated BST2 (BioLegend; Cat # 348406). Cells were washed once and stained with Alexa Fluor 647 donkey anti-goat for 30 min on ice. Cells were washed once, resuspended in PBS/EDTA and samples were acquired on a FACS LSR Fortessa cytometer (BD Bioscience). Data were analyzed using Flowjo (Version 10.1).
The testing was repeated with D-Carnitine as well. Cells were either stained for ACE2 using either anti-ACE2 Ab, anti-BST2 Ab or the combination or both followed by secondary Ab isotype. […] The table represents the fluorescence counts.

In the case of `C[N+](C)(C)C[C@H](O)CC(=O)[O-]` [L-carnitine], the MDA (malondialdehyde; Car200: 200 mg/kg oral gavage, no exercise) is reported as 0.693±0.021^b µmol/L, the MDA (malondialdehyde; Ex+Car25: exercise, 25 mg/kg oral gavage) is reported as 0.599±0.021^c µmol/L and the MDA (malondialdehyde; Ex+Car50: exercise, 50 mg/kg oral gavage) is reported as 0.549±0.014^cd µmol/L. For the same molecule, the MDA (malondialdehyde; Ex+Car100: exercise, 100 mg/kg oral gavage) was 0.553±0.018^cd µmol/L, the MDA (malondialdehyde; Ex+Car200: exercise, 200 mg/kg oral gavage) was 0.489±0.019^de µmol/L and the MDA (malondialdehyde; Ex+Car400: exercise, 400 mg/kg oral gavage) was 0.419±0.009^e µmol/L. The “serum ACE-2” value (ACE-2 [1]) was “reduction”, the “cytotoxicity (MTT)” value (Calu-3 cells) was “did not show any cytotoxic properties” and the “decrease in the ACE-2 protein at the cell surface” value (ACE-2 [2]) was “about 75%”.

From US20230346735A1, “Nutritional Composition Comprising Carnitine and Method for Treating or Preventing an Infection in a Mammal” (priority 2020, published 2023)
